Assays:
[1] = system: iNKT TCR of DN3A4-1.2 Vα14+ iNKT hybridoma cells; assay: Binding avidity of mCD1d-loaded glycolipids to Vα14+ iNKT cells (ternary interaction); set-up: species or system mouse
Method: (3A) DN3A4-1.2 Vα14+ iNKT hybridoma cells and (3B) 7DW8-5-expanded Vα24^+ iNKT cells were incubated with various concentrations of the indicated dimeric mCD d-glycolipid and hCD1d-glycolipid complexes for 30 min at 4° C., respectively. The level of bound complexes at the indicated concentration was detected by anti-mIgG1 secondary antibody and analyzed by flow cytometry. The relationship between the binding percentage and the concentration of CD1ddi-glycolipids complex was plotted in mice (3A) and humans (3B). KD values in mice (3C) and humans (3D) were calculated from Scatchard transformation of the plot (3A) and 3B), respectively. Assay was performed in duplicates.
Briefly, murine CD1d:Ig dimer (BD Biosciences PharMingen, San Diego, Calif.) was loaded with glycolipids at a molar ratio of 1:10 or vehicle for overnight at 37° C. Murine 1.2 Vα14+ iNKT cells were incubated with various doses of dimer-glycolipid complex in buffer containing azide (0.05%) for 30 min at 4° C. These cells were then stained with anti-mouse IgG1-PE mAb (A85-1) for another 30 min at 4° C., followed by washing, fixation with 4% paraformaldehyde (PFA), and the bound mCD1d dimer complexes were detected by flow cytometry. The binding curve and linear fit of the Scatchard transformation were plotted by Graphpad Prism software.
(§1) Next, we measured the ternary interaction between CD1d-glcolipid complex and the iNKT TCR in mice and humans. Different concentrations of mCD1d^di-glycolipid and hCD1d^di-glycolipid complexes were incubated with fixed amounts of DN3A4-1.2 murine iNKT hybridoma cells and human Vα24+/Vβ11^+ iNKT cells, respectively. The level of bound complexes at the indicated concentration was detected by anti-mIgG1 secondary antibody and analyzed by flow cytometry (FIGS. 3A and 3B). The KD of the ternary complex was calculated from the Scatchard transformation of the plots in FIGS. 3A and 3B using GraphPad Prism software. […] This was consistent with the observation that higher percentages of C1-pulsed splenocytes were stained by the mCD1d-7DW8-5 complex (36.2±5.0%) than mCD1d-7DW8-5-Glc complex (17.1±0.8%) (FIG. 11).

Jα18 KO mice = assay: Murine serum cytokine/chemokine secretion after i.v. glycolipid, Jα18 knockout mice; type: in vivo; settings: 1 μg/mouse; sera 2 and 18 hr
Method: (§2) B6 wild type and Jα18 knockout mice were i.v. injected with the indicated glycolipids (1 μg/mouse) or vehicle. Sera collected at 2 h and 18 h post-injection were analyzed for cytokines like IL-2 (7A), IL-6 (7B), GM-CSF (7C) and TNFα (7D) as well as chemokines such as IP-10 (7E), MIG (7F), KC (7G) and MCP-1 (7H). Only MIG peaked at 18 hr post-injection, while the others peaked at 2 hr post-injection.
(§3) All the glycolipids were dissolved in 100% DMSO at a concentration of 1-2 mg/ml. For in vivo experiments, all compounds were diluted to 10 μg/ml in saline just before injection of 100 μl diluted glycolipid or 100 μl 1% DMSO into mice. Pathogen-free C57BL/6 female mice aged 6-12 weeks were obtained from the National Laboratory Animal Center (Taipei, Taiwan). Jα18 knockout (KO) B6 mice were the gifts from Dr. Masaru Taniguchi (RIKEN Research Center for Allergy and Immunology, Yokohama, Japan). All the mice were maintained in pathogen free vivarium of Institute of Cellular and Organismic Biology, Academia Sinica (Taipei, Taiwan).
(§4) B6 WT or Jα18 KO mice were intravenously injected with vehicle or glycolipids at 0.1 or 1 μg/mouse. Serum was collected at 2 and 18 h after injection for measurement of cytokines/chemokines by Beadlyte® Mouse Cytokine kit (Millipore, N.Y.) and read by a Luminex® 200™ system (Luminex, Austin, Tex.).

Vα24+/Vβ11+ iNKT TCR = Vα24+/Vβ11+ iNKT TCR (Homo sapiens, UniProt A0A075B6N4+A0A0B4J240+P15813); assay: Binding avidity of hCD1d-loaded glycolipids with Vα24+ iNKT cells (ternary interaction); settings: for Kd: in complex with hCD1d, Scatchard transformation, read-out: KD of ternary complex, hCD1d-glycolipid toward Vα24+/Vβ11+ iNKT TCR
Chain of Vα24+/Vβ11+ iNKT TCR (P01848 whole entry): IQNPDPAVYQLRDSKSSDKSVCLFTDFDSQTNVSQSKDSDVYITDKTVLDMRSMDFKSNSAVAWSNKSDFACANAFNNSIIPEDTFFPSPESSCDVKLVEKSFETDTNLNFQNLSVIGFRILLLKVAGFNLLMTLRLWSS
Chain of Vα24+/Vβ11+ iNKT TCR (A0A075B6N4 22-114): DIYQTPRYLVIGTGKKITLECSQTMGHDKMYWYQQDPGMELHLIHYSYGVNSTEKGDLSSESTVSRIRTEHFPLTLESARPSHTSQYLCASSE
Chain of Vα24+/Vβ11+ iNKT TCR (P61769 21-119, further chain): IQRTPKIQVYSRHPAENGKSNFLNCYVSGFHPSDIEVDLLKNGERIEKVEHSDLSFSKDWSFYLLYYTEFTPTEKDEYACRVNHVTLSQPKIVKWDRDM
Chain of Vα24+/Vβ11+ iNKT TCR (A0A0B4J240 22-114): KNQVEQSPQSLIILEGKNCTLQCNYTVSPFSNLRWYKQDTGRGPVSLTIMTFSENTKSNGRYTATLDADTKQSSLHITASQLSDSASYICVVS
Chain of Vα24+/Vβ11+ iNKT TCR (P15813 20-301): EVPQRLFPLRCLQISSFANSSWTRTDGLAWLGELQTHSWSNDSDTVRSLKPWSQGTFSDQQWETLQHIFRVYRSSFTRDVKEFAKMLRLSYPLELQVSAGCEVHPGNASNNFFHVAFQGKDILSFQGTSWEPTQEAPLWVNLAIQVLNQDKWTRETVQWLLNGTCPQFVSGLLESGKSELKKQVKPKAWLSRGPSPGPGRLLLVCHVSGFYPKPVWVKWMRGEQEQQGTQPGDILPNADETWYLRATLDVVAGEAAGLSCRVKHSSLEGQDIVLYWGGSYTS
Method: as §1, with “(3A) DN3A4-1.2 Vα14+ iNKT hybridoma cells and (3B) 7DW8-5-expanded Vα24^+ iNKT cells were incubated with various concentrations of the indicated dimeric mCD d-glycolipid and hCD1d-glycolipid complexes for 30 min at 4° C., respectively. The level of bound complexes at the indicated concentration was detected by anti-mIgG1 secondary antibody and analyzed by flow cytometry. The relationship between the binding percentage and the concentration of CD1ddi-glycolipids complex was plotted in mice (3A) and humans (3B). KD values in mice (3C) and humans (3D) were calculated from Scatchard transformation of the plot (3A) and 3B), respectively. Assay was performed in duplicates. Binding avidity of human CD1d-glycolipid complexes to Vα24^+ iNKT cells expanded by 7DW8-5 at 100 ng/ml was determined as described previously.^19 Next,” for “Next,”

B6 wild type mice = assay: Murine serum cytokine/chemokine secretion after i.v. glycolipid, wild type mice; type: in vivo, mouse
Method: B6 wild type mice were i.v. injected with 7DW8-5-Glc at 0.1 or 1 μg/mouse. Sera collected at 2 h and 18 h post-injection were analyzed for chemokine secretions such as IP-10 (6A), KC (6B), MCP-1 (6C), and MIP-1α (6D). These chemokines peaked at 2 hr post-injection.
as §2, §3, §4
Previously, 0.1 μg/mouse of 7DW8-5 was sufficient for immune stimulation,^19 but higher dosage (1 μg/mouse) was required for the glucose analog 7DW8-5-Glc to induce immune responses (FIG. 6). Thus, the biological activities of newly synthesized glycolipids were tested in B6 mice 2 and 18 hr after i.v. injection of glycolipids at 1 μg/mouse. […] As compared to GSLs with αGlc, GSLs with αGal induced higher levels of cytokines and chemokines, including IFN-γ, IL-2, IL-4, IL-6, GM-CSF, TNFα and IP-10.

Structure (SMILES)	fold stronger interaction with iNKT TCR than mCD1d-7DW8-5-Glc complex ([1]; mCD1d complex) [fold]	induction of cytokines in Jα18 KO mice (Jα18 KO mice)	Kd (Vα24+/Vβ11+ iNKT TCR) [nM]	secretion of chemokines KC, MCP-1, IP-10 and MIG in Jα18 KO mice (Jα18 KO mice)	levels of KC, MCP-1, IP-10 and MIG chemokines induced (B6 wild type mice; 1 μg/mouse i.v., 2 and 18 hr)	levels of Th1 and Th2 cytokines induced (B6 wild type mice; 1 μg/mouse i.v., 2 and 18 hr)	dosage required to induce immune responses (B6 wild type mice; i.v., sera 2 h and 18 h) [μg/mouse]	staining of murine iNKT cells with CD1d-glycolipid dimer [1]	induction of serum cytokines/chemokines (B6 wild type mice; 1 μg/mouse i.v., 2 and 18 hr)	staining of human iNKT cells with CD1d-glycolipid dimer (Vα24+/Vβ11+ iNKT TCR)
CCCCCCCCCCCCCC[C@@H](O)[C@@H](O)[C@H](CO[C@H]1O[C@H](CO)[C@H](O)[C@H](O)[C@H]1O)NC(=O)CCCCCCCCCCc1ccc(F)cc1 [Compound 7DW8-5, reference compound]	~10	no induction	0.777 ± 0.022							
CC[C@@H](O)[C@@H](O)[C@H](CO[C@H]1OC(CO)[C@@H](O)C(O)C1O)NC(=O)Cc1ccc(F)cc1 (stereo partly drawn) [Compound 7DW8-5-Glc]		no induction	0.481 ± 0.008	triggered the secretion	relatively high levels	very low levels	1			
CCCCCCCCCCCCCC[C@@H](O)[C@@H](O)[C@H](CO[C@H]1O[C@H](CO)[C@@H](O)[C@H](O)[C@@H]1O)NC(=O)CCCCCCCCCCc1ccc(F)cc1 [Compound 7DW8-5-Man]								lack of staining	failed to induce any cytokines/chemokines	lack of staining

— patent US10533034B2, “Human iNKT cell activation using glycolipids” (ACADEMIA SINICA, priority 2014, dated 2020)
